Test results: patent US20260284050A1, “ACTIVATORS OF THE COLD STRESS RESPONSE AND USES THEREOF” (priority 2023, published 2026)
Like-named read-outs stand apart in the source and are kept apart here. Blank lines part the entries; values can stand above or below the molecule they belong to. Where a SMILES comes first, the peptide text is derived from it. The star is where a group is joined. Cbz = O=C(OCc1ccccc1)*

Tests used:
SP1+MCRE-MHI = assay: cells; settings: HEK293FT; for fold induction at 20 µM: Homo sapiens
Procedure: Briefly, Lipofectamine 3000 (Thermofisher Scientific, L3000015) was used to transfect the SP1+MCRE indicator into the HEK293FT cell line. 24 h after transfection, 30000 cells were plated into each well of a 96 well black well plate. 48 h after transfection the cells were exposed to FDA Approved Drug Screening Library (L1300-Z298012) via the High Throughput Screening Services (ChemCore) at Johns Hopkins University. Each drug was exposed in 20 μM concentration. Total well GFP was read with the ClarioStarPlus Plate Reader (settings: gain 1500, 470-15 excitation and emission 515-20 at focal height 2.6) 16, 28, and 40 h after exposure of the library. Increase in fluorescence was calculated with dividing GFP reads from positive control at each time point with GFP reads of each well exposed to drug at the same timepoint for wells in the same lane. Compounds were validated in same concentration (20 μM). For validation cells were exposed to the drug for 24 hours, and evaluated by FACS as described in the section Transfection of indicators into cell lines.
To explore this in an unbiased manner, a systematic library drug screen (1953 FDA-approved inhibitors) was performed using HEK293FT cells transfected with the SP1+MCRE-MHI. […] Cells transfected with said MHI were exposed to the drug library (20 μM concentration) and fluorescence was measured after 16-, 28- and 40-hours of drug exposure. Drugs that could increase the indicator's fluorescence at least >3.75 times at one of the time points were further investigated.

HEK293 cells = assay: Cell cycle phase evaluation of HEK293 cells; format: cell-based, human; settings: for cell cycle arrest: HEK293 cells exposed to compound
Procedure: To exclude the possibility of cell cycle arrest or increased apoptosis, cell cycle phase of HEK293 cells exposed to Pozitinib and Entacapone was evaluated. […] Similarly, there were no signs of activation of the MHIs after exposure to an apoptotic agent.

SP1-MHI = assay: FACS validation in HEK293 cells with Cas9 and SP1-MHI; format: cell-based, human; settings: 20 μM
Procedure: HEK293 cell lines were transfected when 70-90% confluency was reached. Either Lipofectamine™ 2000 or 3000 (Thermofisher Scientific, #11668027, #L3000015) was used according to the manufacture's protocol. The fluorescence of the indicators was measured via FACS up to 48 hours after transfection. FACS data were analysed with the FlowJo Software, where gates were created on living cells, single cells, GFP positive cells and the fluorescence for that population was measured.
Each drug was exposed in 20 μM concentration. […] Compounds were validated in same concentration (20 μM).
HEK293 cells with Cas9 and SP1-MHI were individually exposed to each compound (20 μM) for 16 hours at either 32° C. or 37° C. followed by FACS. […] (Entacapone, Poziotinib), indicating activation of response with drug without hypothermic stimulus.

SP1, RBM3 and CIRBP = assay: Western blot of SP1, RBM3 and CIRBP after compound exposure; format: cell-based, human; settings: 24 h exposure at either 32° C. or 37° C.
Procedure: (§1) Cells were washed with PBS and then lysed for 30 min on ice in RIPA buffer (50 mM Tris HCl ph8, 150 mM NaCl, 1% NP-40, 1% Sodium deoxycholate, 0.1% SDS, 2 mM EDTA, phosphatase inhibitor (Cell signaling, Cat. #5870S), and Halt™ Protease Inhibitor Cocktail (Thermo Fisher, Cat. #78437). The lysates were centrifuged at 16,000×g for 20 minutes at 4° C. and the supernatants were collected. The supernatants were diluted with 4× loading buffer (Li-cor) and heated at 95° C. for 5 mins. The protein concentration was measured using Pierce™ BCA Assay Kit (Thermo Fisher). 20-30 μg protein samples were loaded into gels and separated by SDS-PAGE. They were transferred to polyvinylidene fluoride (PVDF) membranes and blocked in 5% bovine serum albumin in Tris-buffered saline with Tween 20 for 1 hour. Primary antibodies (rabbit anti-CIRBP, 1:2000, Cat. #10209-2-AP, Proteintech; rabbit anti-RBM3, 1:1000, CAT. #14363-1-AP, Proteintech; rabbit anti-SP1 1:1000, CAT. #21962-1-AP, Proteintech; mouse anti-Lamin 1, 1:5000, CAT. #66095-1-Ig, Proteintech; rabbit anti-SMYD5, 1:1000, in-house; rabbit anti-Phospho-SP1, 1:1000, CAT. #PA5-104771, Proteintech) were applied to respective membranes after washing, and incubated at 4° C. overnight. […] After washing, the protein bands were visualized on the Odyssey® CLx Infrared Imaging System and quantified by Image J software.

SMYD5 = SMYD5 levels at 32° C. with proteasome inhibition; format: cell-based, human; settings: 6 hour exposure
Procedure: as §1, with “software. […]” for “software.”

CIRBP = assay: RT-qPCR of endogenous CIRBP relative to GAPDH; format: cell-based, human; settings: 16 h exposure at 37° C.
Procedure: (§2) Total RNA from cells incubated at 32° C. or 37° C. was isolated, using Direct-zol™ RNA Microprep (Zymo Research, R2062), according to the manufacturer's instructions. The concentration of RNA was measured by NanoDrop™ One Microvolume UV-Vis Spectrophotometer (Thermo Scientificv™) followed by cDNA synthesis with High-Capacity cDNA Reverse Transcription Kit (Applied Biosystems™, 4368814) on MiniAmp™ Thermal Cycler (Applied Biosystems™). qPCR was performed using Luna® Universal qPCR Master Mix on CFX384™ Real-Time PCR Detection System (Bio-Rad). Each biological replicate of the RT-qPCR assay in this study was carried out in technical triplicates. Any technical replicate that deviated from other replicates by 0.4 cycle threshold (Ct) was removed from calculations of average Ct values. The primers used in this study are as follows: […]
(§3) To evaluate effects on the endogenous loci (CIRBP, RBM3 and SP1) real time quantitative polymerase chain reaction (RT-qPCR) was carried out after 16 h of either 32° C. or 37° C.—with or without the exposure to the compound during that time.

SP1 = assay: RT-qPCR of endogenous SP1 relative to GAPDH; format: cell-based, human; settings: 16 h exposure at 37° C.
Procedure: as §2, §3

RBM3 = assay: RT-qPCR of endogenous RBM3 relative to GAPDH; format: cell-based, human; settings: 16 h exposure at 37° C.
Procedure: as §2, §3

[1] = 40 h, read-out: increase in fluorescence of the SP1+MCRE-MHI

Compound: CN(C)C/C=C/C(=O)Nc1cc2c(Nc3ccc(F)c(Cl)c3)ncnc2cc1O[C@H]1CCOC1 [Afatinib]
fold induction at 20 µM (SP1+MCRE-MHI; [1]): > 3.75

Compound: C[C@@H](NCCCc1cccc(C(F)(F)F)c1)c1cccc2ccccc12 [Cincalcet]
increase in fluorescence of the SP1+MCRE-MHI (SP1+MCRE-MHI; 20 μM, at one of the time points (16, 28, 40 h of drug exposure)): > 3.75 times

Compound: Cc1nc(Nc2ncc(C(=O)Nc3c(C)cccc3Cl)s2)cc(N2CCN(CCO)CC2)n1 [Dasatinib]
fold induction at 20 µM (SP1+MCRE-MHI; [1]): > 3.75

Compound: CCN(CC)C(=O)/C(C#N)=C/c1cc(O)c(O)c([N+](=O)[O-])c1 [Entacapone]
percentage of total cells in the S phase of cell cycle (HEK293 cells; 16 hours exposure at both 32° C. and 37° C.): slight increase | cell cycle arrest (HEK293 cells): Any signs of cell cycle arrest | mean fluorescence of SP1-MHI by FACS (SP1-MHI; 16 hours at 32° C.): significantly (P<0.01) potentiate fluorescence levels | mean fluorescence of SP1-MHI by FACS (SP1-MHI; 16 hours at 37° C.): significantly (P<0.001, P<0.0001) increased fluorescence | Western blot of SP1, RBM3 and CIRBP with versus without compound (SP1, RBM3 and CIRBP): significant difference (P<0.05 | fold induction at 20 µM (SP1+MCRE-MHI; [1]): > 3.75

Compound: CC[C@H]1OC(=O)[C@H](C)[C@@H](O[C@H]2C[C@@](C)(OC)[C@@H](O)[C@H](C)O2)[C@H](C)[C@@H](O[C@@H]2O[C@H](C)C[C@H](N(C)C)[C@H]2O)[C@](C)(O)C[C@@H](C)C(=O)[C@H](C)[C@@H](O)[C@]1(C)O [Erythromycin]
fold induction at 20 µM (SP1+MCRE-MHI; [1]): > 3.75

Compound: CS(=O)(=O)CCNCc1ccc(-c2ccc3ncnc(Nc4ccc(OCc5cccc(F)c5)c(Cl)c4)c3c2)o1 [Lapatinib]
fold induction at 20 µM (SP1+MCRE-MHI; [1]): > 3.75

Compound: CC(C)C[C@@H](C=O)NC(=O)[C@H](CC(C)C)NC(=O)[C@H](CC(C)C)NC(=O)OCc1ccccc1 [MG132] (Cbz-Leu-Leu-Leu-aldehyde)
SMYD5 levels (SMYD5): increases levels of SMYD5 at 32 °C to levels seen at 37 °C

Compound: C=CCN1CC[C@]23c4c5ccc(O)c4O[C@H]2C(=O)CC[C@@]3(O)[C@H]1C5 [Naloxone]
fold induction at 20 µM (SP1+MCRE-MHI; [1]): > 3.75

Compound: Cc1[nH]c(/C=C2\C(=O)Nc3ccccc32)c(C)c1CCC(=O)O [Orantinib]
fold induction at 20 µM (SP1+MCRE-MHI; [1]): > 3.75

cell cycle arrest (HEK293 cells): Any signs of cell cycle arrest
Compound: C=CC(=O)N1CCC(Oc2cc3c(Nc4ccc(Cl)c(Cl)c4F)ncnc3cc2OC)CC1 [Poziotinib]
mean fluorescence of SP1-MHI by FACS (SP1-MHI; 16 hours at 37° C.): significantly (P<0.001, P<0.0001) increased fluorescence | CIRBP mRNA expression (CIRBP): trend towards increase | SP1 mRNA expression (SP1): trend towards increase | fold induction at 20 µM (SP1+MCRE-MHI; [1]): > 3.75 | RBM3 mRNA expression (RBM3): significantly (P<0.05) increased

Compound: C=CC(=O)Nc1cccc(Nc2nc(Nc3ccc(N4CCN(C(C)=O)CC4)cc3OC)ncc2C(F)(F)F)c1 [Rociletinib]
fold induction at 20 µM (SP1+MCRE-MHI; [1]): > 3.75

Compound: CC/C(=C(\c1ccccc1)c1ccc(OCCN(C)C)cc1)c1ccccc1 [Tamoxifen]
fold induction at 20 µM (SP1+MCRE-MHI; [1]): > 3.75

Compound: Cc1ccc(C(=O)c2cc(O)c(O)c([N+](=O)[O-])c2)cc1 [Tolcapone]
fold induction at 20 µM (SP1+MCRE-MHI; 16 h, read-out: relative increase of fluorescence of the SP1+MCRE-MHI compared to control): 1.8 | fold induction at 20 µM (SP1+MCRE-MHI; 28 h, read-out: relative increase of fluorescence of the SP1+MCRE-MHI compared to control): 1.7 | fold induction at 20 µM (SP1+MCRE-MHI; 40 h, read-out: relative increase of fluorescence of the SP1+MCRE-MHI compared to control): 1.9
